Test results taken from patent US7144893B2, “4-aryl quinols and analogs thereof as therapeutic agents” (Cancer Research Technology Limited, priority 2001, dated 2006).
Values after ≈ are worked out from the molar mass of the structure shown.

Legend:
[1] = system: MCF-7 wt and MCF-7/adr (breast cancer); assay: Potency in MCF-7 wt and MCF-7/adr; assay type: cell-based
p53 = p53 regulation in cancer cells; assay type: cell-based; conditions: MCF-7 (breast cancer) and HCT 116 (colon cancer)
[2] = system: Mycobacterium tuberculosis H37Rv (ATCC 27294); assay: Microplate Alamar Blue Assay (MABA), TAACF primary screening; assay type: cell-based; conditions: lowest concentration effecting a reduction in fluorescence of 90% relative to controls
Description: Compounds were submitted to the Tuberculosis Antimicrobial Acquisition and Coordinating Facility (TAACF) for testing as antimycobacterial drugs.
Compounds were subjected to in vitro evaluation for antimycobacterial activity.
See, for example, Collins et al., 1997.

apoptotic events = assay: Induction of apoptotic events; assay type: cell-based; conditions: after lag phase (48 h)
[3] = system: human renal tumor xenograft RXF 1220; assay: In vivo antitumor activity, renal tumor xenograft; conditions: 15 mg/kg i.p.
[4] = system: human renal tumor xenograft RXF 944LX; assay: In vivo antitumor activity, renal tumor xenograft; conditions: for DT (tumor doubling time) / T/C (optimal test/control) / GD (growth delay): 15 mg/kg i.p.
Experimental: Animals. Six to eight weeks old outbred nude mice of NMRI genetic background were used for all experiments. The animals were bred and raised in animal facilities in Freiburg, Germany and housed in Macrolon™ cages. The mice were kept under laminar air flow on natural day light cycles. Diet (Altromin, Lage, Germany) and water were provided ad libitum and room temperature (25+/−2° C.) as well as humidity (60+/−10%) were maintained. The experiments were conducted essentially according to the UKCCCR guidelines under a project license approved by the German Federal Government (Regierungspräsidium Freiburg). The gender of the mice was chosen according to the gender of the patients from which the tumors were originally derived.
Tumors and Data Evaluation. For the experiments, three subcutaneously (s.c.) growing renal human tumor xenograft models from the Freiburg tumor panel were selected (RXF 944LX, RXF 393, and RXF 1220). All renal cell carcinomas were hypernephromas. For the experiments, the latter were engrafted from tumors in serial passage growing s.c. in nude mice. Fragments of approximately 25 mg were implanted s.c. in both flanks of the animals. When the tumors were clearly palpable and had reached a volume of 100–200 mm^3, animals (6–12 tumors) were randomly allocated into treatment groups. Tumor growth was followed twice weekly by serial caliper measurement. Tumor volumes were calculated using the formula length×width^2/2, where length (a) is the largest dimension and width (b) the smallest dimension perpendicular to the length (a×b^2/2) (see, e.g., Geran et al., 1972).
Data evaluation was performed using software by plotting relative tumor volume against time. Relative tumor volumes were calculated for each single tumor by dividing the tumor volume on day X by the tumor volume on day 0 at the time of randomization. Tumor doubling time of test and control groups was defined as the period required to double the initial tumor volume (200%). Growth curves were analyzed in terms of maximal tumor inhibition (treated/control, T/C, calculated as median tumor weight of treated animals divided by median tumor weight of control animals times 100), growth delay (the difference in days to double the initial tumor volume of the test minus the control groups). Median relative tumor volumes of each treatment group were compared to those of the control group. Human tumors growing s.c. in nude mice were treated intraperitoneally (i.p.) with doses of 15 and 10 mg/kg drug either on days 1 and 2; on days 1 and 5; on days 1 and 8; or on days 1, 5 and 8.
The drug doses and treatment schedules used, were determined as being tolerated in non-tumor bearing nude mice prior to initiation of tumor experiments.

[5] = system: ZR^75 clones expressing different levels of epidermal growth factor receptor (EGFR); assay: Activity against ZR75 clones with different EGFR levels; assay type: cell-based
RXF 393NL = assay: In vitro propidium iodide cytotoxicity assay; assay type: cell-based, human; conditions: mean ± S.D.
Experimental: (§1) This assay was performed essentially according to the method described by Dengler et al., 1995. Human tumor cells (see Table 2) were plated in 96 well flat-bottomed microtiter plates (50 μL cell suspension, 1×10^5 or 5×10^4 cells/mL) and additional 50 μL of culture medium were added. After a 24 hr recovery, 50 μL of culture medium containing 50 μg/mL gentamycin was added into the 6 control wells or medium containing the test drug ([…]) was added to the wells. Each drug concentration was plated in triplicate. Following 3-6 days of incubation, depending on cell doubling time, a modified propidium iodide (PI) assay was performed. Culture medium was replaced by fresh medium and 50 μL of an aqueous propidium iodide solution (25 μg/mL) were added to each well. […] The fluorescence signal correlates with the numbers of dead cells. Fluorescence (FU1) was measured using a Millipore Cytofluor 2350 microplate reader (excitation 530 nm, emission 620 nm). Microplates were then kept at -18° C. for 24 hr, yielding a total cell kill. After thawing of the plates and a second fluorescence measurement (FU2), the amount of viable cells was calculated by subtraction of […]). Growth inhibition was expressed as treated/control ×100 (% T/C) (that is, growth inhibition at a given concentration is represented as a percentage of treated cell growth over control cell growth). Inhibiting concentrations (IC) were determined by plotting compound concentration versus cell viability. Mean IC50, IC70, and IC90 values were calculated for each individual cell line.

RXF 631L = assay: In vitro propidium iodide cytotoxicity assay; assay type: cell-based, human; conditions: mean ± S.D.
Experimental: as §1

RXF 944L = assay: In vitro propidium iodide cytotoxicity assay; assay type: cell-based, human; conditions: mean ± S.D.
Experimental: as §1

[6] = system: human renal tumor xenograft RXF 393; assay: In vivo antitumor activity, renal tumor xenograft; conditions: for DT (tumor doubling time) / T/C (optimal test/control): days 1, 5; for GD (growth delay): days 1, 5, difference in days to double initial tumor volume; for BWC (maximal body weight change): days 1, 5, model induces cachexia
[7] = system: MCF-7 (wt p53) and MDS 468 (mut p53) (breast cancer); assay: Potency in MCF-7 (wt p53) and MDS 468 (mut p53); assay type: cell-based

## O=C1C=CC(O)(c2nc3ccccc3s2)C=C1 [Q05, 4-(Benzothiazol-2-yl)-4-hydroxy-2,5-cyclohexadien-1-one]
[1]
  relative potency MCF-7 wt and MCF-7/adr: equi-potent
p53
  effect on p53: up-regulates p53
[2]
  MIC: 0.78 µg/mL (≈ 3.21 µM)
Apoptotic events
  apoptosis induction: induces apoptotic events
[3]; days 1, 5, 8
  DT (tumor doubling time): 5.3
  T/C (optimal test/control): 66
[3]; days 1, 5, 8, difference in days to double initial tumor volume
  GD (growth delay): 2.2
[3]; days 1, 5, 8, model induces cachexia
  BWC (maximal body weight change): −20
[4]; days 1, 2
  DT (tumor doubling time): 4.1
  T/C (optimal test/control): 27
[4]; days 1, 2, difference in days to double initial tumor volume
  GD (growth delay): 2.9
[4]; days 1, 8
  DT (tumor doubling time): 4.2
  T/C (optimal test/control): 43
[4]; days 1, 8, difference in days to double initial tumor volume
  GD (growth delay): 2.3
[4]; FIG. 2, six animals per group
  toxic death in treatment group: 1/6
[4]; FIG. 2, six animals per group, 11–12 tumors per group
  T/C: 43%
[4]; FIG. 3, three animals per group
  T/C: 27%
[5]
  relative activity against ZR75 clones: equi-active
RXF 393NL; Homo sapiens
  IC50: 0.34 ± 0.03 µg/mL (≈ 1.4 µM)
  IC90: 8.63 ± 5.4 µg/mL (≈ 35.5 µM)
RXF 393NL
  Mean IC70: 0.67 ± 0.09 µg/mL
RXF 631L; Homo sapiens
  IC50: 0.37 µg/mL (≈ 1.52 µM)
  IC90: 0.84 µg/mL (≈ 3.45 µM)
RXF 631L
  Mean IC70: 0.56 N.E. μg/mL
RXF 944L; Homo sapiens
  IC50: 0.265 ± 0.06 µg/mL (≈ 1.09 µM)
  IC90: 0.87 ± 0.09 µg/mL (≈ 3.58 µM)
RXF 944L
  Mean IC70: 0.48 ± 0.08 µg/mL
[6]; 10 mg/kg i.p.
  DT (tumor doubling time): 3.0
  T/C (optimal test/control): 63
  GD (growth delay): 0.9
  BWC (maximal body weight change): −16
[6]; 15 mg/kg i.p.
  DT (tumor doubling time): 2.6
  T/C (optimal test/control): 56
  GD (growth delay): 0.5
  BWC (maximal body weight change): −19
[7]
  relative potency MCF-7 (wt p53) and MDS 468 (mut p53): equi-potent
